Test results reported in patent publication US20230085307A1, “PYRIDAZINONE COMPOUND AND HERBICIDE” (NISSAN CHEMICAL CORPORATION, priority 2019, published 2023).

How the values were obtained:
[1] = system: Japanese bulrush; experiment: Test Example 1: herbicidal activity, application before weed generation under submerged conditions (Table 16, symbol B); type: in vivo, Japanese bulrush (Schoenoplectus juncoides); settings: 320 g/ha applied herbicide
In short: (§1)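 Emulsion formulation, water-diluted to set dose, was put onto the flooded surface (4 cm depth, alluvial soil) the same day weeds were sown and 2.5-leaf rice transplanted. After 3 weeks at 25-30 °C under glass, each species was rated 0 (≤5% kill) to 5 (≥90% kill).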

[2] = system: green foxtail; experiment: Test Example 4: herbicidal effect by soil treatment (Table 19, symbol G); type: in vivo, green foxtail (Setaria viridis); settings: amount of applied herbicide 320 g/ha
In short: (§2)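 In this soil treatment, the formulated compound reached the seeds only through the soil: seeds were buried about 1.5 cm deep in sterilized diluvial soil, then the diluted emulsion was sprayed over the surface. After three weeks at 25° C. to 30° C. in a greenhouse, effects were graded on criteria from an earlier test.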

[3] = system: persian speedwell; experiment: Test Example 5: herbicidal effect by foliage application, plastic box (Table 20, symbol R); type: in vivo, Persian speedwell (Veronica persica); settings: foliage application, 320 g/ha, evaluated three weeks after application
In short: (§3)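 Plants were sown into sterilized diluvial soil under about 1.5 cm cover and kept in a greenhouse at 25° C. to 30° C. Fourteen days on, foliage received an even spray of the diluted emulsion. Herbicidal or crop effect was judged three weeks afterwards.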

[4] = system: chickweed; experiment: Test Example 5: herbicidal effect by foliage application, plastic box (Table 20, symbol P); type: in vivo, common chickweed (Stellaria media); settings: foliage application, 320 g/ha, evaluated three weeks after application
In short: as §3

[5] = system: green foxtail; experiment: Test Example 5: herbicidal effect by foliage application, plastic box (Table 20, symbol G); type: in vivo, green foxtail (Setaria viridis); settings: foliage application, 320 g/ha, evaluated three weeks after application
In short: as §3

[6] = system: redroot pigweed; experiment: Test Example 5: herbicidal effect by foliage application, plastic box (Table 20, symbol N); type: in vivo, redroot pigweed (Amaranthus retroflexus); settings: foliage application, 320 g/ha, evaluated three weeks after application
In short: as §3

[7] = system: oval-leafed pondweed; experiment: Test Example 1: herbicidal activity, application before weed generation under submerged conditions (Table 16, symbol C); type: in vivo, oval-leafed pondweed (Monochoria vaginalis); settings: 320 g/ha applied herbicide
In short: as §1

[8] = system: barnyard grass; experiment: Test Example 5: herbicidal effect by foliage application, plastic box (Table 20, symbol H); type: in vivo, barnyard grass (Echinochloa crus-galli); settings: foliage application, 320 g/ha, evaluated three weeks after application
In short: as §3

[9] = system: southern crabgrass; experiment: Test Example 5: herbicidal effect by foliage application, plastic box (Table 20, symbol F); type: in vivo, southern crabgrass (Digitaria ciliaris); settings: foliage application, 320 g/ha, evaluated three weeks after application
In short: as §3

[10] = system: lambsquarters; experiment: Test Example 4: herbicidal effect by soil treatment (Table 19, symbol O); type: in vivo, lambsquarters (Chenopodium album); settings: amount of applied herbicide 320 g/ha
In short: as §2

[11] = system: windgrass; experiment: Test Example 4: herbicidal effect by soil treatment (Table 19, symbol L); type: in vivo, windgrass (Apera spica-venti); settings: amount of applied herbicide 320 g/ha
In short: as §2

[12] = system: velvetleaf; experiment: Test Example 4: herbicidal effect by soil treatment (Table 19, symbol M); type: in vivo, velvetleaf (Abutilon theophrasti); settings: amount of applied herbicide 320 g/ha
In short: as §2

[13] = system: southern crabgrass; experiment: Test Example 4: herbicidal effect by soil treatment (Table 19, symbol F); type: in vivo, southern crabgrass (Digitaria ciliaris); settings: amount of applied herbicide 320 g/ha
In short: as §2

[14] = system: Italian ryegrass; experiment: Test Example 4: herbicidal effect by soil treatment (Table 19, symbol K); type: in vivo, Italian ryegrass (Lolium multiflorum); settings: amount of applied herbicide 320 g/ha
In short: as §2

[15] = system: persian speedwell; experiment: Test Example 4: herbicidal effect by soil treatment (Table 19, symbol R); type: in vivo, Persian speedwell (Veronica persica); settings: amount of applied herbicide 320 g/ha
In short: as §2

[16] = system: redroot pigweed; experiment: Test Example 4: herbicidal effect by soil treatment (Table 19, symbol N); type: in vivo, redroot pigweed (Amaranthus retroflexus); settings: amount of applied herbicide 320 g/ha
In short: as §2

[17] = system: Italian ryegrass; experiment: Test Example 5: herbicidal effect by foliage application, plastic box (Table 20, symbol K); type: in vivo, Italian ryegrass (Lolium multiflorum); settings: foliage application, 320 g/ha, evaluated three weeks after application
In short: as §3

[18] = system: barnyard grass; experiment: Test Example 4: herbicidal effect by soil treatment (Table 19, symbol H); type: in vivo, barnyard grass (Echinochloa crus-galli); settings: amount of applied herbicide 320 g/ha
In short: as §2

[19] = system: blackgrass; experiment: Test Example 4: herbicidal effect by soil treatment (Table 19, symbol J); type: in vivo, blackgrass (Alopecurus myosuroides); settings: amount of applied herbicide 320 g/ha
In short: as §2

[20] = system: Chinese sprangletop; experiment: Test Example 3: herbicidal effect by foliage application, Wagner pot (Table 18, symbol D); type: in vivo, chinese sprangletop (Leptochloa chinensis); settings: amount of applied herbicide 320 g/ha
In short: (§4)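 Plants were sown in alluvial soil held under 0.1–0.5 cm standing water and grown 14 days in a greenhouse at 25–30 °C. An emulsifiable formulation, water-diluted to the set dose, was then sprayed onto the foliage, and effects were scored three weeks later using previously defined criteria.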

[21] = system: late watergrass; experiment: Test Example 1: herbicidal activity, application before weed generation under submerged conditions (Table 16, symbol A); type: in vivo, late watergrass (Echinochloa oryzicola); settings: 320 g/ha applied herbicide
In short: as §1

[22] = system: windgrass; experiment: Test Example 5: herbicidal effect by foliage application, plastic box (Table 20, symbol L); type: in vivo, windgrass (Apera spica-venti); settings: foliage application, 320 g/ha, evaluated three weeks after application
In short: as §3

[23] = system: wild oat; experiment: Test Example 4: herbicidal effect by soil treatment (Table 19, symbol I); type: in vivo, wild oat (Avena fatua); settings: amount of applied herbicide 320 g/ha
In short: as §2

[24] = system: wild oat; experiment: Test Example 5: herbicidal effect by foliage application, plastic box (Table 20, symbol I); type: in vivo, wild oat (Avena fatua); settings: foliage application, 320 g/ha, evaluated three weeks after application
In short: as §3

[25] = system: chickweed; experiment: Test Example 4: herbicidal effect by soil treatment (Table 19, symbol P); type: in vivo, common chickweed (Stellaria media); settings: amount of applied herbicide 320 g/ha
In short: as §2

[26] = system: velvetleaf; experiment: Test Example 5: herbicidal effect by foliage application, plastic box (Table 20, symbol M); type: in vivo, velvetleaf (Abutilon theophrasti); settings: foliage application, 320 g/ha, evaluated three weeks after application
In short: as §3

[27] = system: barnyard grass; experiment: Test Example 3: herbicidal effect by foliage application, Wagner pot (Table 18, symbol H); type: in vivo, barnyard grass (Echinochloa crus-galli); settings: amount of applied herbicide 320 g/ha
In short: as §4

[28] = system: lambsquarters; experiment: Test Example 5: herbicidal effect by foliage application, plastic box (Table 20, symbol O); type: in vivo, lambsquarters (Chenopodium album); settings: foliage application, 320 g/ha, evaluated three weeks after application
In short: as §3

[29] = system: rice flat sedge; experiment: Test Example 3: herbicidal effect by foliage application, Wagner pot (Table 18, symbol E); type: in vivo, rice flat sedge (Cyperus iria); settings: amount of applied herbicide 320 g/ha
In short: as §4

[30] = system: blackgrass; experiment: Test Example 5: herbicidal effect by foliage application, plastic box (Table 20, symbol J); type: in vivo, blackgrass (Alopecurus myosuroides); settings: foliage application, 320 g/ha, evaluated three weeks after application
In short: as §3

| SMILES | Herbicidal effect on B: Japanese bulrush (grade 0-5) [1] | G: green foxtail, herbicidal effect rating [2] | herbicidal effect on R: persian speedwell (criteria 0-5) [3] | herbicidal effect on P: chickweed (criteria 0-5) [4] | herbicidal effect on G: green foxtail (criteria 0-5) [5] | herbicidal effect on N: redroot pigweed (criteria 0-5) [6] | Herbicidal effect on C: oval-leafed pondweed (grade 0-5) [7] | herbicidal effect on H: barnyard grass (criteria 0-5) [8] | herbicidal effect on F: southern crabgrass (criteria 0-5) [9] | O: lambsquarters, herbicidal effect rating [10] | L: windgrass, herbicidal effect rating [11] | M: velvetleaf, herbicidal effect rating [12] | F: southern crabgrass, herbicidal effect rating [13] | K: Italian ryegrass, herbicidal effect rating [14] | R: persian speedwell, herbicidal effect rating [15] | N: redroot pigweed, herbicidal effect rating [16] | herbicidal effect on K: Italian ryegrass (criteria 0-5) [17] | H: barnyard grass, herbicidal effect rating [18] | J: blackgrass, herbicidal effect rating [19] | herbicidal effect on D: Chinese sprangletop [20] | also measured |
| --- | --- | --- | --- | --- | --- | --- | --- | --- | --- | --- | --- | --- | --- | --- | --- | --- | --- | --- | --- | --- | --- |
| Cc1nn(C)c(=O)c(-c2c(-c3ccccc3Cl)sc3ccc(F)cc23)c1O [2-203] | 0 (Herbicidal rate of 5% or less (almost no effect)) | 0 (Herbicidal rate of 5% or less (almost no effect)) | 4 (Herbicidal rate of 70% or more and less than 90%) | 5 (Herbicidal rate of 90% or more (almost completely withered)) | 4 (Herbicidal rate of 70% or more and less than 90%) | 3 (Herbicidal rate of 40% or more and less than 70%) | 0 (Herbicidal rate of 5% or less (almost no effect)) | 2 (Herbicidal rate of 20% or more and less than 40%) | 0 (Herbicidal rate of 5% or less (almost no effect)) | 3 (Herbicidal rate of 40% or more and less than 70%) | 0 (Herbicidal rate of 5% or less (almost no effect)) | 1 (Herbicidal rate of 5% or more and less than 20%) | 0 (Herbicidal rate of 5% or less (almost no effect)) | 0 (Herbicidal rate of 5% or less (almost no effect)) | 0 (Herbicidal rate of 5% or less (almost no effect)) | 2 (Herbicidal rate of 20% or more and less than 40%) | 2 (Herbicidal rate of 20% or more and less than 40%) | 0 (Herbicidal rate of 5% or less (almost no effect)) | 0 (Herbicidal rate of 5% or less (almost no effect)) | 4 (Herbicidal rate of 70% or more and less than 90%) | Herbicidal effect on A: late watergrass (grade 0-5) [21]: 2 (Herbicidal rate of 20% or more and less than 40%); herbicidal effect on L: windgrass (criteria 0-5) [22]: 4 (Herbicidal rate of 70% or more and less than 90%); I: wild oat, herbicidal effect rating [23]: 0 (Herbicidal rate of 5% or less (almost no effect)); herbicidal effect on I: wild oat (criteria 0-5) [24]: 0 (Herbicidal rate of 5% or less (almost no effect)); P: chickweed, herbicidal effect rating [25]: 3 (Herbicidal rate of 40% or more and less than 70%); herbicidal effect on M: velvetleaf (criteria 0-5) [26]: 4 (Herbicidal rate of 70% or more and less than 90%); herbicidal effect on H: barnyard grass [27]: 4 (Herbicidal rate of 70% or more and less than 90%); herbicidal effect on O: lambsquarters (criteria 0-5) [28]: 3 (Herbicidal rate of 40% or more and less than 70%); herbicidal effect on E: rice flat sedge [29]: 5 (Herbicidal rate of 90% or more (almost completely withered)); herbicidal effect on J: blackgrass (criteria 0-5) [30]: 0 (Herbicidal rate of 5% or less (almost no effect)) |
| CCOc1cccc(-c2sc3ccc(F)cc3c2-c2c(O)c(C)nn(C)c2=O)c1 [2-211] | 0 (Herbicidal rate of 5% or less (almost no effect)) | 4 (Herbicidal rate of 70% or more and less than 90%) | 5 (Herbicidal rate of 90% or more (almost completely withered)) | 5 (Herbicidal rate of 90% or more (almost completely withered)) | 5 (Herbicidal rate of 90% or more (almost completely withered)) | 5 (Herbicidal rate of 90% or more (almost completely withered)) | 0 (Herbicidal rate of 5% or less (almost no effect)) | 5 (Herbicidal rate of 90% or more (almost completely withered)) | 5 (Herbicidal rate of 90% or more (almost completely withered)) | 2 (Herbicidal rate of 20% or more and less than 40%) | 3 (Herbicidal rate of 40% or more and less than 70%) | 3 (Herbicidal rate of 40% or more and less than 70%) | 5 (Herbicidal rate of 90% or more (almost completely withered)) | 5 (Herbicidal rate of 90% or more (almost completely withered)) | 5 (Herbicidal rate of 90% or more (almost completely withered)) | 5 (Herbicidal rate of 90% or more (almost completely withered)) | 5 (Herbicidal rate of 90% or more (almost completely withered)) | 5 (Herbicidal rate of 90% or more (almost completely withered)) | 4 (Herbicidal rate of 70% or more and less than 90%) | 5 (Herbicidal rate of 90% or more (almost completely withered)) | Herbicidal effect on A: late watergrass (grade 0-5) [21]: 2 (Herbicidal rate of 20% or more and less than 40%); herbicidal effect on L: windgrass (criteria 0-5) [22]: 4 (Herbicidal rate of 70% or more and less than 90%); I: wild oat, herbicidal effect rating [23]: 0 (Herbicidal rate of 5% or less (almost no effect)); herbicidal effect on I: wild oat (criteria 0-5) [24]: 0 (Herbicidal rate of 5% or less (almost no effect)); P: chickweed, herbicidal effect rating [25]: 3 (Herbicidal rate of 40% or more and less than 70%); herbicidal effect on M: velvetleaf (criteria 0-5) [26]: 5 (Herbicidal rate of 90% or more (almost completely withered)); herbicidal effect on H: barnyard grass [27]: 5 (Herbicidal rate of 90% or more (almost completely withered)); herbicidal effect on O: lambsquarters (criteria 0-5) [28]: 5 (Herbicidal rate of 90% or more (almost completely withered)); herbicidal effect on E: rice flat sedge [29]: 4 (Herbicidal rate of 70% or more and less than 90%); herbicidal effect on J: blackgrass (criteria 0-5) [30]: 4 (Herbicidal rate of 70% or more and less than 90%) |
